According to US11026946B2, “Pharmacologically active alicyclic-substituted pyrazolo[1,5-a]pyrimidine derivatives” (RICHTER GEDEON NYRT., priority 2017, dated 2021):

How the values were obtained:
GABAB receptor = target: T1, GABAB receptor (Rattus norvegicus, UniProt O88871+Q9Z0U4); assay: In vitro [35S]GTPγS binding assay in rat cortical membranes; format: biochemical; settings: PAM EC50, [35S]GTPγS binding, read-out: In vitro PAM potency
T1 construct: from tissue; host or cells: rat brain cortex membranes
Procedure: In Vitro [^35S]GTPγS Binding Assay in Rat Cortical Membranes
Cortices of freshly harvested rat brains were dissected on an ice-cold surface and homogenized by a glass Dounce homogeniser immediately in ice-cold buffer containing 50 mM Tris, 5 mM MgCl2 and 1 mM EDTA (pH=7.6). Tissue homogenates were centrifuged at 40000 g for 15 min at 4° C. Membrane pellets were resuspended in the same buffer and membranes were incubated for 10 min at 30° C. in a shaking water bath to eliminate endogenous GABA. Homogenates were centrifuged again under the same conditions. The final pellets were resuspended in ice-cold buffer (pH=7.6) containing 50 mM Tris, 100 mM NaCl, 7 mM MgCl2, 1 mM EDTA and 1 mM dithiotreithol (DTT) to yield a concentration of 20 mg tissue weight/ml and frozen at −70° C. until use. The assay was done in a buffer containing 50 mM Tris (pH=7.4), 100 mM NaCl, 7 mM MgCl2, 1 mM EDTA and 1 mM DTT. Each assay tube contained 150 μL GDP (in a final concentration of 50 μM), 100 μL ligand and 125 μL of the membrane suspension (250 μg tissue/tube). The assay tubes were preincubated for 10 min at 30° C. to assure equilibrium. Nonspecific binding was determined in the presence of 10 μM GTPγS: basal binding was determined in the presence of buffer only. After addition of 50 pM [^35S]GTPγS in a volume of 25 μL to the tubes, membranes were incubated for an additional 60 min at 30° C. The assay was terminated by rapid filtration through Packard UniFilter GF/B using a Packard harvester and washed four times with 1 ml ice-cold buffer. After drying the filters at 40° C. for 1 h, 40 μL Microscint (Packard) was added to the filters and radioactivity of the filters was determined by a TopCount NXT (PerkinElmer, Waltham, Mass.: Alper and Nelson, Eur. J. Pharmacol. 1998, 343, 303-312; Rinken et al, Biochem. Pharmacol. 1999, 57, 155-162). Data thus gathered were used to determine PAM EC50 values for each compound as primary in vitro activity end point.

adult rats = assay: Foot shock-induced ultrasonic vocalization (USV) in adult rats; format: in vivo, rat; settings: 1 mg/kg per os, 1 h before shocking, male Wistar rats, versus vehicle
Procedure: Foot Shock-Induced Ultrasonic Vocalization (USV) in Adult Rats
(§1) Under stressful conditions, adult rats emit 22 kHz ultrasounds that can be reduced by various pharmacological treatments (De Vry et al, Eur. J. Pharmacol. 1993, 249, 331-339; Sanchez, Eur. J. Pharmacol. 2003, 463, 133-143). […] Therefore, a foot shock-induced vocalization paradigm in adult rats was used to assess efficacy of centrally acting GABAB receptor ligands. Behavioral measurements were carried out on male Wistar rats (200-250 g, Toxicoop, Hungary). Rats were housed in groups of four in plastic cages with a wire grid top in a temperature and light-controlled laboratory animal care unit (22±2° C., 12-h light/dark cycle, lights on at 6:00 AM) with ad libitum access to commercial pellet rat food and tap water. Investigations were approved by the Local Ethical Committee of Gedeon Richter Plc. and were carried out in strict compliance with the European Directive 2010/63/EU regarding the care and use of laboratory animals for experimental procedures and all efforts were made to minimize the number of animals as well as their suffering. In order to evoke emission of ultrasounds, animals were footshocked after a habituation period of 30 s (6 shocks, 1 s, 0.8 mA each, inter-shock interval 10 s) in a sound attenuated shocking chamber (Experimetria, 40×40×80 cm). Investigational compounds were administered at the dose of 1 mg/kg in a solid dispersion formulation in distilled water 1 h before shocking per os. Vocalizations were measured right after the last footshock for 10 min with a Metris Sonotrack system and the total time of vocalizations was registered. Vocalization of parallel vehicle treated animals was considered as control value and inhibition percent was calculated for each compound. At approximately 75 min after treatment and behavioral measurements, blood and brain samples were harvested in order to determine exposures associated with in vivo activity.

[1] = Plasma and brain levels after the USV assay; format: in vivo, rat; settings: 1 mg/kg per os, approximately 75 min after treatment; for brain exposure at 1 mg/kg: rat brain; for plasma exposure at 1 mg/kg: rat plasma
Procedure: as §1
In Table 2 compounds of this invention measured in the USV assay are listed. In Table 3 plasma and brain levels of compounds of this invention are listed.

T1 sequence (O88871 41-940): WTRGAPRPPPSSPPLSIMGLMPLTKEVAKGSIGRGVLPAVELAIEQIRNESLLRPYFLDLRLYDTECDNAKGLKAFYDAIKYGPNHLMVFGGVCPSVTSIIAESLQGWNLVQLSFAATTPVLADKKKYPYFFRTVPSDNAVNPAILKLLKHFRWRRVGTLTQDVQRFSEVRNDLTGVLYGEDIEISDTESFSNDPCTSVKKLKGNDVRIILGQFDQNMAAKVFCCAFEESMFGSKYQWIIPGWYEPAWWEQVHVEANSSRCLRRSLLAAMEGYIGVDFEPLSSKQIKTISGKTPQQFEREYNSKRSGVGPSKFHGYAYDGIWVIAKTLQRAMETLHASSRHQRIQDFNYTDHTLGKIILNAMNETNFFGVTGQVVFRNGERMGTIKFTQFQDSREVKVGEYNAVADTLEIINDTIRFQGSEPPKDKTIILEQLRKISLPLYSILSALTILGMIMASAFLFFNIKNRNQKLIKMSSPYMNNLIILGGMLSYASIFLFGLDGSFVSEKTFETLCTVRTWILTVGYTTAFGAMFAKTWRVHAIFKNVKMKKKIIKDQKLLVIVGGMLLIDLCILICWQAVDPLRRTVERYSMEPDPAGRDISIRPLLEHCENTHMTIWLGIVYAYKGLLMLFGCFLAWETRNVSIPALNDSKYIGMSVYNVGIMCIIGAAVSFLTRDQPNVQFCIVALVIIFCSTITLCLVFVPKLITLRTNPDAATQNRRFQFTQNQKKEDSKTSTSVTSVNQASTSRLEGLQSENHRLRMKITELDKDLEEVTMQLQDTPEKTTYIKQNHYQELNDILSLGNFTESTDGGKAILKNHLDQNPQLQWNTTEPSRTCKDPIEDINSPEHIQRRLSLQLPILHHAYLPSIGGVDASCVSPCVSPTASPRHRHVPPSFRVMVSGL
T1 sequence (Q9Z0U4 17-960 limits assumed): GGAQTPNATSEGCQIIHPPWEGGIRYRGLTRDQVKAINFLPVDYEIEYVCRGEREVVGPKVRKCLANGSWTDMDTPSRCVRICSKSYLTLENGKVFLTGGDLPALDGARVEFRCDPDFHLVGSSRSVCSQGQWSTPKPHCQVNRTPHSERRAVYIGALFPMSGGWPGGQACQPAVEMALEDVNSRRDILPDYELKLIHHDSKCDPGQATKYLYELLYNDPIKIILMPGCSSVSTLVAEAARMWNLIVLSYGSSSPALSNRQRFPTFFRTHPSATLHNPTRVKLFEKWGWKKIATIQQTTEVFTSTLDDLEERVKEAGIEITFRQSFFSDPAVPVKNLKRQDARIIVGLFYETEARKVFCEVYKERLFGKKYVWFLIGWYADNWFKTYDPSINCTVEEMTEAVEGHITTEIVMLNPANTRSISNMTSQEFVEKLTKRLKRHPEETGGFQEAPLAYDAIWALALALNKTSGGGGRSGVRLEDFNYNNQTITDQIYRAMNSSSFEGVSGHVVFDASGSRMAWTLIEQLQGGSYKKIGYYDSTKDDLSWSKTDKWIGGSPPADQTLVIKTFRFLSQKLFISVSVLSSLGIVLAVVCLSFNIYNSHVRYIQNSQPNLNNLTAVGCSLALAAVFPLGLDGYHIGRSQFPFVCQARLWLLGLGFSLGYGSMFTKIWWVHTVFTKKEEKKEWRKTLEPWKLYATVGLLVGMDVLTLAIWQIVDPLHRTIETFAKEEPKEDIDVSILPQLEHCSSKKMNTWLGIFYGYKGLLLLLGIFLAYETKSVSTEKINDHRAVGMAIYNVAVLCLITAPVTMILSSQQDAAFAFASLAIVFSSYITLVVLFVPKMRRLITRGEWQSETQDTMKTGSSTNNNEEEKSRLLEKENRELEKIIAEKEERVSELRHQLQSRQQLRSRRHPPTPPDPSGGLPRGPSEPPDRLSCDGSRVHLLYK

Row | EC50 (GABAB receptor) [nM] | brain exposure at 1 mg/kg [1] [ng/g] | plasma exposure at 1 mg/kg [1] [ng/mL] | Structure (SMILES) | USV inhibition at 1 mg/kg (%) (adult rats)
1 | 1 to 10 | – | – | CCCC1(C(=O)O)CCCN(c2c(C(C)C)c(C)nc3cc([C@H]4CC[C@H](C(F)(F)F)CC4)nn23)C1 (single isomer, unassigned) [Example 4] | –
2 | 1 to 10 | – | – | CCCC1(C(=O)O)CCCN(c2c(C(C)C)c(C)nc3cc([C@H]4CC[C@H](C(F)(F)F)CC4)nn23)C1 (single isomer, unassigned) [Example 5] | –
3 | 1 to 10 | – | – | Cc1nc2cc([C@H]3CC[C@H](C(F)(F)F)CC3)nn2c(N2CCCC(CF)(C(=O)O)C2)c1C(C)C (single isomer, unassigned) [Example 6] | –
4 | < 1 | – | – | Cc1nc2cc([C@H]3CC[C@H](C(F)(F)F)CC3)nn2c(N2CCCC(CF)(C(=O)O)C2)c1C(C)C (single isomer, unassigned) [Example 7] | –
5 | 1 to 10 | 62 | 121 | CC[C@]1(C(=O)O)CCCN(c2c(C(C)C)c(C)nc3cc([C@H]4CC[C@H](C(F)(F)F)CC4)nn23)C1 (single isomer, unassigned) [Example 12] | 59
6 | < 1 | 31 | 124 | CC[C@@]1(C(=O)O)CCCN(c2c(C(C)C)c(C)nc3cc([C@H]4CC[C@H](C(F)(F)F)CC4)nn23)C1 (single isomer, unassigned) [Example 13] | 97
7 | 1 to 10 | 53 | 170 | Cc1nc2c(F)c([C@H]3CC[C@H](C(F)(F)F)CC3)nn2c(N2CCC[C@](C)(C(=O)O)C2)c1C(C)C (single isomer, unassigned) [Example 15] | 89
8 | < 1 | 36 | 131 | Cc1nc2c(F)c([C@H]3CC[C@H](C(F)(F)F)CC3)nn2c(N2CCC[C@@](C)(C(=O)O)C2)c1C(C)C (single isomer, unassigned) [Example 16] | 100
9 | 1 to 10 | 74 | 135 | CC[C@]1(C(=O)O)CCCN(c2c(C(C)C)c(C)nc3c(F)c([C@H]4CC[C@H](C(F)(F)F)CC4)nn23)C1 (single isomer, unassigned) [Example 17] | 79
10 | < 1 | 30 | 175 | CC[C@@]1(C(=O)O)CCCN(c2c(C(C)C)c(C)nc3c(F)c([C@H]4CC[C@H](C(F)(F)F)CC4)nn23)C1 (single isomer, unassigned) [Example 18] | 75
11 | 10 to 100 | – | – | COc1c(C)nc2cc([C@H]3CC[C@H](C(F)(F)F)CC3)nn2c1N1CCC[C@](C)(C(=O)O)C1 (single isomer, unassigned) [Example 19] | –
12 | 100 to 1000 | – | – | COc1c(C)nc2cc([C@H]3CC[C@H](C(F)(F)F)CC3)nn2c1N1CCC[C@@](C)(C(=O)O)C1 (single isomer, unassigned) [Example 20] | –
13 | 1 to 10 | – | – | COc1c(C)nc2c(F)c([C@H]3CC[C@H](C(F)(F)F)CC3)nn2c1N1CCC[C@](C)(C(=O)O)C1 (single isomer, unassigned) [Example 23] | –
14 | 10 to 100 | – | – | COc1c(C)nc2c(F)c([C@H]3CC[C@H](C(F)(F)F)CC3)nn2c1N1CCC[C@@](C)(C(=O)O)C1 (single isomer, unassigned) [Example 24] | –
15 | 10 to 100 | – | – | CC[C@]1(C(=O)O)CCCN(c2c(OC)c(C)nc3c(F)c([C@H]4CC[C@H](C(F)(F)F)CC4)nn23)C1 (single isomer, unassigned) [Example 25] | –
16 | 10 to 100 | – | – | CC[C@@]1(C(=O)O)CCCN(c2c(OC)c(C)nc3c(F)c([C@H]4CC[C@H](C(F)(F)F)CC4)nn23)C1 (single isomer, unassigned) [Example 26] | –
17 | 1 to 10 | – | – | Cc1nc2cc(C3CCC(F)(F)CC3)nn2c(N2CCC[C@@](C)(C(=O)O)C2)c1C(C)C (single isomer, unassigned) [Example 30] | –

Row | EC50 (GABAB receptor) [nM] | brain exposure at 1 mg/kg [1] [ng/g] | plasma exposure at 1 mg/kg [1] [ng/mL] | Structure (SMILES) | USV inhibition at 1 mg/kg (%) (adult rats)
18 | 10 to 100 | – | – | CC[C@@]1(C(=O)O)CCCN(c2c(C(C)C)c(C)nc3cc(C4CCC(F)(F)CC4)nn23)C1 (single isomer, unassigned) [Example 32] | –
19 | 1 to 10 | – | – | Cc1nc2cc([C@H]3CC[C@H](C(F)(F)F)CC3)nn2c(N2CCC[C@H](C(=O)O)C2)c1C(C)C [Example 1, (3S)-1-[5-Methyl-6-(propan-2-yl)-2-[trans-4-(trifluoromethyl)cyclohexyl]pyrazolo[1,5-a]pyrimidin-7-yl]piperidine-3-carboxylic Acid] | –
20 | 1 to 10 | 74 | 188 | Cc1nc2cc([C@H]3CC[C@H](C(F)(F)F)CC3)nn2c(N2CCC[C@](C(=O)O)(C(C)C)C2)c1C(C)C [Example 2, (3S)-1-[5-Methyl-6-(propan-2-yl)-2-[trans-4-(trifluoromethyl)cyclohexyl]-pyrazolo[1,5-a]pyrimidin-7-yl]-3-(propan-2-yl)piperidine-3-carboxylic Acid] | 85
21 | 1 to 10 | – | – | Cc1nc2cc([C@H]3CC[C@H](C(F)(F)F)CC3)nn2c(N2CCC[C@@H](C(=O)O)C2)c1C(C)C [Example 10] | –
22 | 1 to 10 | – | – | Cc1nc2cc([C@H]3CC[C@H](C(F)(F)F)CC3)nn2c(N2CCC[C@@](C(=O)O)(C(C)C)C2)c1C(C)C [Example 14] | –
23 | 10 to 100 | – | – | CC[C@]1(C(=O)O)CCCN(c2c(OC)c(C)nc3cc([C@H]4CC[C@H](C(F)(F)F)CC4)nn23)C1 [Example 21] | –
24 | 100 to 1000 | – | – | CC[C@@]1(C(=O)O)CCCN(c2c(OC)c(C)nc3cc([C@H]4CC[C@H](C(F)(F)F)CC4)nn23)C1 [Example 22] | –
25 | 1 to 10 | – | – | CCc1c(C)nc2cc([C@H]3CC[C@H](C(F)(F)F)CC3)nn2c1N1CCC[C@@](C)(C(=O)O)C1 [Example 27] | –
26 | 10 to 100 | – | – | CCc1c(C)nc2cc([C@H]3CC[C@H](C(F)(F)F)CC3)nn2c1N1CCC[C@@](CC)(C(=O)O)C1 [Example 28] | –
27 | 10 to 100 | – | – | Cc1nc2cc(C3CCC(F)(F)CC3)nn2c(N2CCC[C@](C)(C(=O)O)C2)c1C(C)C [Example 29] | –
28 | 10 to 100 | – | – | CC[C@]1(C(=O)O)CCCN(c2c(C(C)C)c(C)nc3cc(C4CCC(F)(F)CC4)nn23)C1 [Example 31] | –
29 | – | 34 | 172 | CCc1nc2cc([C@H]3CC[C@H](C(F)(F)F)CC3)nn2c(N2CCC[C@@](C)(C(=O)O)C2)c1CC [Example 33] | 63
30 | 1 to 10 | – | – | C[C@@]1(C(=O)O)CCCN(c2c3c(nc4cc([C@H]5CC[C@H](C(F)(F)F)CC5)nn24)CCCC3)C1 [Example 34] | –
31 | 100 to 1000 | – | – | C[C@]1(C(=O)O)CCCN(c2c3c(nc4cc([C@H]5CC[C@H](C(F)(F)F)CC5)nn24)CCOC3)C1 [Example 36] | –
32 | 100 to 1000 | – | – | C[C@]1(C(=O)O)CCCN(c2c3c(nc4cc([C@H]5CC[C@H](C(F)(F)F)CC5)nn24)COCC3)C1 [Example 37] | –
33 | 1 to 10 | – | – | Cc1nc2c(F)c(C3CCC(F)(F)CC3)nn2c(N2CCC[C@@](C)(C(=O)O)C2)c1C(C)C [Example 40] | –
34 | 100 to 1000 | – | – | C[C@@]1(C(=O)O)CCCN(c2c3c(nc4cc([C@H]5CC[C@H](C(F)(F)F)CC5)nn24)COCC3)C1 [Example 42] | –
